Converted amounts (≈) assume the structure as drawn. Like-named read-outs stand apart in the source and are kept apart here.
Legend:
Spodoptera littoralis = assay: Insecticidal leaf dip bioassay on S. littoralis larvae (castor bean leaf discs); assay type: in vivo, Spodoptera littoralis (cotton leafworm, laboratory strain); conditions: for Toxicity index %: 72 hours, fenoxycarb's LC50 / compound's LC50 * 100; for LC50: Spodoptera littoralis, in Gossypium hirsutum, foliar, 72 h
Experimental: Five concentrations (200, 100, 50, 25, 12.5 ppm) were designed for this synthetic compound and the reference fenoxycarb's compound as the dynamic ingredients based on ppm via diluting the commercial formulation.
In this experiment, the synthetic compound was tested for its insecticidal bioactivity using the industry-standard leaf dip bioassay techniques. Preparation of the compound stocks to create […], 0.1 g of compounds 2 were dissolved in five mL of Dimethyl formamide & combined with 5 mL of distilled water. Until usage, the stocks were kept in a refrigerator. The target substance test results were noted & the concentrations needed to destroy 50% (LC50) of S. littoralis larvae were calculated. The target compound was employed in five different concentrations, and 0.1% Tween 80 was employed as a surfactant. Castor bean leaf discs (nine centimeters in diameter) were dipped in the concentration under test for ten seconds, then fed to 2th and 4th larvae, which were roughly the same size and housed in glass jars (five pound). Each action carried out 3 times with ten larvae each. The mortality equalized via Abbott's formula. Calculations of mortality setback line were measurably rummage via probity analysis. Harmfulness index was strongminded via sun equations. The mortality results of larval insect were estimated through employing probit analysis through a statistics (LDP-line) equation which estimate the LC50 values with 95% fiducially limits of lower, upper confidence limit and slope.

aquatic insects = conditions: cited from earlier work

| SMILES | Toxicity index % (Spodoptera littoralis; 2nd instar larvae) [%] | LC50 (mg/L) at 95% (Spodoptera littoralis; 2nd instar larvae, after 72 hours of treatment, leaf dip) | Toxicity index % (Spodoptera littoralis; 4th instar larvae) [%] | LC50 (Spodoptera littoralis; 2nd instar larvae, after 72 hours of treatment, leaf dip, read-out: LC50 (mg/L) at 95%) [mg/L] | LC50 (Spodoptera littoralis; 4th instar larvae, after 72 hours of treatment, leaf dip, read-out: LC50 (mg/L) at 95%) [mg/L] | LC50 (Spodoptera littoralis; read-out: LC50 (mg/L) at 95%, 2nd instar larvae, after 72 hours of treatment, leaf dip) [mg/L] | LC50 (Spodoptera littoralis; read-out: LC50 (mg/L) at 95%, 4th instar larvae, after 72 hours of treatment, leaf dip) [mg/L] | LC50 (aquatic insects) [µg/mL] |
| --- | --- | --- | --- | --- | --- | --- | --- | --- |
| CC(CNC(=O)c1cc([N+](=O)[O-])cc([N+](=O)[O-])c1)OC(=S)Nc1ccc(Cl)cc1 (stereo not shown) [Compound 2, O-{1-[(3,5-dinitrobenzoyl)amino]propan-2-yl} (4-chlorophenyl)carbamothioate] | 47.52 | about 12.505 mg/L | 88.23 | 12.5 (≈ 28.5 µM) | ~67.9 (≈ 155 µM) | – | – | – |
| CCOC(=O)NCCOc1ccc(Oc2ccccc2)cc1 [fenoxycarb] | 100 | – | 100 | – | – | 5.94 (≈ 19.7 µM) | 59.9 (≈ 199 µM) | – |
| CCc1ccc(C(=O)NN(C(=O)c2cc(C)cc(C)c2)C(C)(C)C)cc1 [tebufenozide] | – | – | – | – | – | – | – | 100 to 1000 |
